Laboratory results reported in patent publication US9284306B2, “(R)-Nifuratel, its use for the treatment of infections and synthesis of (R) and (S)-Nifuratel” (POLICHEM SA, priority 2012, dated 2016).
Converted amounts (≈) assume the structure as drawn. Where two headings read alike, the source gives them in different places.

Assays:
Atopobium vaginae = experiment: MIC, agar dilution; format: cell-based; settings: Fannyhessea vaginae
Procedure: (§1) Micrococcus pyogenes (ATCC 11631), Bacillus subtilis (ATCC 11774), Lactobacillus iners (ATCC 55195), Escherichia coli (ATCC 11775), Proteus mirabilis (ATCC 14153), Klebsiella pneumoniae (ATCC 10031), Shigella sonnei (ATCC 11060), Neisseria gonorrhoeae (ATCC 19424), Salmonella typhimurium (ATCC 14028) Salmonella paratyphi B (ATCC 10719), Helicobacter pylori (ATCC 43504) and several strains of Atopobium vaginae and Gardnerella vaginalis.
(§2) Strains were prepared from freeze-dried pellets. An isolation of the suspensions (to test the strains purity) and a strains massive growth were made by streaking microbial suspensions on agar media. The bacterial colonies on agar plates were collected with 3-5 mL of specific liquid medium+15% glycerol and then the aliquots were frozen at −80° C.
(§3) Compounds Minimal Inhibitory Concentration (MIC) was determined through broth micro-dilution susceptibility testing with a method developed following the National Committee for Clinical Laboratory Standards (CLSI) M07-A8 and M11-A7 references. Assays were carried out in specific media (Table 3). The tests were performed either following the broth microdilution assay or the agar dilution assay. Compounds stock solutions were made at 12.8 mg/mL in DMSO 100%. A series of twofold dilutions were then prepared using the strain specific broth. Final concentrations were from 0.125 μg/mL to 64 μg/mL at 1% DMSO. MIC is defined as the lowest concentration of antibacterial agent which prevent any visible growth.

Gardnerella vaginalis = experiment: MIC, agar dilution; format: cell-based
Procedure: as §1, §2, §3

[1] = tested on: Gram positive and negative organisms; experiment: Antimicrobial activity (MIC), overall comparison; format: cell-based; settings: Tables 3 and 4, overall
Source text: as §1, §3

[2] = tested on: Staphylococcus aureus (MRSA); experiment: MIC, broth microdilution; format: cell-based
Procedure: as §2, §3

[3] = rat, in vivo
Procedure: The pharmacokinetic profile of S- and R-nifuratel was assessed after intravenous administration (2 mg/kg) and oral gavage (15 mg/kg) in male rats.

in vivo [4] = settings: male, rat, po, 15 mg/kg
[5] = tested on: Lactobacillus iners ATCC 55195; experiment: MIC, broth microdilution; format: cell-based; settings: ATCC55195; broth microdilution; Lactobacillus iners ATCC 55195; read-out: MIC
Procedure: as §1, §2, §3

[6] = tested on: Shigella sonnei ATCC 11060; experiment: MIC, broth microdilution; format: cell-based; settings: ATCC11060
Procedure: as §1, §2, §3

[7] = tested on: Salmonella typhimurium ATCC 14028; experiment: MIC, broth microdilution; format: cell-based; settings: Salmonella enterica; broth microdilution; Salmonella typhimurium ATCC 14028; read-out: MIC
Procedure: as §1, §2, §3

[8] = tested on: Micrococcus pyogenes ATCC 11631; experiment: MIC, broth microdilution; format: cell-based; settings: Staphylococcus aureus, ATCC11631; broth microdilution; Micrococcus pyogenes ATCC 11631; read-out: MIC
Procedure: as §1, §2, §3

[9] = tested on: Salmonella paratyphi B ATCC 10719; experiment: MIC, broth microdilution; format: cell-based; settings: Salmonella enterica
Procedure: as §1, §2, §3

[10] = tested on: Neisseria gonorrhoeae ATCC 19424; experiment: MIC, broth microdilution; format: cell-based; settings: ATCC19424; broth microdilution; Neisseria gonorrhoeae ATCC 19424; read-out: MIC
Procedure: as §1, §2, §3

[11] = tested on: Klebsiella pneumonia ATCC 10031; experiment: MIC, broth microdilution; format: cell-based; settings: Klebsiella pneumoniae, ATCC10031; broth microdilution; Klebsiella pneumonia ATCC 10031; read-out: MIC
Procedure: as §1, §2, §3

[12] = tested on: Proteus mirabilis ATCC 14153; experiment: MIC, broth microdilution; format: cell-based; settings: ATCC14153; broth microdilution; Proteus mirabilis ATCC 14153; read-out: MIC
Procedure: as §1, §2, §3

[13] = tested on: Escherichia coli ATCC 11775; experiment: MIC, broth microdilution; format: cell-based; settings: ATCC11775; broth microdilution; Escherichia coli ATCC 11775; read-out: MIC
Procedure: as §1, §2, §3

Bacillus subtilis = experiment: MIC, broth microdilution; format: cell-based; settings: broth microdilution, read-out: MIC
Procedure: as §1, §2, §3

[14] = tested on: Helicobacter pylori ATCC 43504; experiment: MIC, broth microdilution; format: cell-based; settings: ATCC43504
Procedure: as §1, §2, §3

in vivo [15] = settings: male, rat, iv, 2 mg/kg
[16] = CCUG38953, agar dilution, Atopobium vaginae CCUG 38953, read-out: MIC
[17] = CCUG42099, agar dilution, Atopobium vaginae CCUG 42099, read-out: MIC
[18] = CCUG43049, agar dilution, Atopobium vaginae CCUG 43049, read-out: MIC
[19] = CCUG44156, agar dilution, Atopobium vaginae CCUG 44156, read-out: MIC
[20] = CCUG48515, agar dilution, Atopobium vaginae CCUG 48515, read-out: MIC
[21] = CCUG55226, agar dilution, Atopobium vaginae CCUG 55226, read-out: MIC
[22] = CCUG55227, agar dilution, Atopobium vaginae CCUG 55227, read-out: MIC
[23] = ATCC14018, agar dilution, Gardnerella vaginalis ATCC 14018, read-out: MIC
[24] = agar dilution, Gardnerella vaginalis C2, read-out: MIC
[25] = agar dilution, Gardnerella vaginalis D2, read-out: MIC
[26] = agar dilution, Gardnerella vaginalis E2, read-out: MIC
[27] = agar dilution, Gardnerella vaginalis G2, read-out: MIC
[28] = agar dilution, Gardnerella vaginalis H2, read-out: MIC
[29] = agar dilution, Gardnerella vaginalis J2, read-out: MIC
[30] = agar dilution, Gardnerella vaginalis K2, read-out: MIC

SMILES: CSC[C@H]1CN(/N=C/c2ccc([N+](=O)[O-])o2)C(=O)O1 [R-nifuratel, (R)-Nifuratel]
- MIC (Atopobium vaginae; [16]): 0.25 mg/L (≈ 0.876 µM)
- MIC (Atopobium vaginae; CCUG39382): 0.125 mg/L (≈ 0.438 µM)
- MIC (Atopobium vaginae; [17]): 0.25 mg/L (≈ 0.876 µM)
- MIC (Atopobium vaginae; [18]): 0.25 mg/L (≈ 0.876 µM)
- MIC (Atopobium vaginae; CCUG44061, agar dilution, Atopobium vaginae CCUG 44061, read-out: MIC): 0.25 mg/L (≈ 0.876 µM)
- MIC (Atopobium vaginae; [19]): 0.25 mg/L (≈ 0.876 µM)
- MIC (Atopobium vaginae; [20]): 0.5 mg/L (≈ 1.75 µM)
- MIC (Atopobium vaginae; [21]): 1 mg/L (≈ 3.51 µM)
- MIC (Atopobium vaginae; [22]): 0.25 mg/L (≈ 0.876 µM)
- MIC (Gardnerella vaginalis; [23]): 1 mg/L (≈ 3.51 µM)
- MIC (Gardnerella vaginalis; [24]): 4 mg/L (≈ 14 µM)
- MIC (Gardnerella vaginalis; [25]): 4 mg/L (≈ 14 µM)
- MIC (Gardnerella vaginalis; [26]): 1 mg/L (≈ 3.51 µM)
- MIC (Gardnerella vaginalis; [27]): 2 mg/L (≈ 7.01 µM)
- MIC (Gardnerella vaginalis; [28]): 1 mg/L (≈ 3.51 µM)
- MIC (Gardnerella vaginalis; [29]): 2 mg/L (≈ 7.01 µM)
- MIC (Gardnerella vaginalis; [30]): 4 mg/L (≈ 14 µM)
- antimicrobial profile compared to nifuratel racemate or (S)-nifuratel [1]: better antimicrobial profile
- MIC [2]: 2 mg/L (≈ 7.01 µM)
- overall pharmacokinetic profile [3]: best pharmacokinetic profile
- AUC(0-t) (in vivo [4]): 0.0668 µg·h/mL
- Clast (in vivo [4]): 0.003 µg/mL
- Cmax (in vivo [4]): 0.034 µg/mL
- MRT (in vivo [4]): 82.4 h
- Tlast (in vivo [4]): 480 min
- Tmax (in vivo [4]): 5 min
- half-life (in vivo [4]): 236 min
- MIC [5]: 16 mg/L (≈ 56.1 µM)
- MIC [6]: 1 mg/L (≈ 3.51 µM)
- MIC [7]: 2 mg/L (≈ 7.01 µM)
- MIC [8]: 2 mg/L (≈ 7.01 µM)
- MIC [9]: 1 mg/L (≈ 3.51 µM)
- MIC [10]: 0.25 mg/L (≈ 0.876 µM)
- MIC [11]: 2 mg/L (≈ 7.01 µM)
- MIC [12]: 8 mg/L (≈ 28 µM)
- MIC [13]: 1 mg/L (≈ 3.51 µM)
- MIC (Bacillus subtilis): 0.25 mg/L (≈ 0.876 µM)
- MIC ([14]; Helicobacter pylori): 0.125 mg/L (≈ 0.438 µM)
- AUC(0-inf) (in vivo [15]): 0.75 µg·h/mL
- AUC(0-t) (in vivo [15]): 0.74 µg·h/mL
- Clast (in vivo [15]): 0.043 µg/mL
- Cmax (in vivo [15]): 4.19 µg/mL
- MRT (in vivo [15]): 7 min
- Tlast (in vivo [15]): 75 min
- Tmax (in vivo [15]): 2 min
- VSR (in vivo [15]): 0.4 L/kg
- clearance (in vivo [15]): 2.94 L/h/kg
- half-life (in vivo [15]): 11 min

SMILES: CSC[C@@H]1CN(/N=C/c2ccc([N+](=O)[O-])o2)C(=O)O1 [S-Nifuratel, (S)-Nifuratel]
- MIC (Atopobium vaginae; [16]): 0.25 mg/L (≈ 0.876 µM)
- MIC (Atopobium vaginae; CCUG39382, agar dilution, Atopobium vaginae CCUG 39382, read-out: MIC): 0.25 mg/L (≈ 0.876 µM)
- MIC (Atopobium vaginae; [17]): 0.5 mg/L (≈ 1.75 µM)
- MIC (Atopobium vaginae; [18]): 0.5 mg/L (≈ 1.75 µM)
- MIC (Atopobium vaginae; CCUG44061): 0.125 mg/L (≈ 0.438 µM)
- MIC (Atopobium vaginae; [19]): 0.25 mg/L (≈ 0.876 µM)
- MIC (Atopobium vaginae; [20]): 1 mg/L (≈ 3.51 µM)
- MIC (Atopobium vaginae; [21]): 1 mg/L (≈ 3.51 µM)
- MIC (Atopobium vaginae; [22]): 0.5 mg/L (≈ 1.75 µM)
- MIC (Gardnerella vaginalis; [23]): 2 mg/L (≈ 7.01 µM)
- MIC (Gardnerella vaginalis; [24]): 8 mg/L (≈ 28 µM)
- MIC (Gardnerella vaginalis; [25]): 2 mg/L (≈ 7.01 µM)
- MIC (Gardnerella vaginalis; [26]): 2 mg/L (≈ 7.01 µM)
- MIC (Gardnerella vaginalis; [27]): 1 mg/L (≈ 3.51 µM)
- MIC (Gardnerella vaginalis; [28]): 2 mg/L (≈ 7.01 µM)
- MIC (Gardnerella vaginalis; [29]): 4 mg/L (≈ 14 µM)
- MIC (Gardnerella vaginalis; [30]): 4 mg/L (≈ 14 µM)
- MIC [2]: 4 mg/L (≈ 14 µM)
- AUC(0-t) (in vivo [4]): 0.0326 µg·h/mL
- Clast (in vivo [4]): 0.003 µg/mL
- Cmax (in vivo [4]): 0.006 µg/mL
- Tlast (in vivo [4]): 480 min
- Tmax (in vivo [4]): 5 min
- MIC [5]: 32 mg/L (≈ 112 µM)
- MIC [6]: 4 mg/L (≈ 14 µM)
- MIC [7]: 8 mg/L (≈ 28 µM)
- MIC [8]: 1 mg/L (≈ 3.51 µM)
- MIC [9]: 4 mg/L (≈ 14 µM)
- MIC [10]: 0.5 mg/L (≈ 1.75 µM)
- MIC [11]: 4 mg/L (≈ 14 µM)
- MIC [12]: 8 mg/L (≈ 28 µM)
- MIC [13]: 2 mg/L (≈ 7.01 µM)
- MIC (Bacillus subtilis): 1 mg/L (≈ 3.51 µM)
- MIC ([14]; broth microdilution, Helicobacter pylori ATCC 43504, read-out: MIC): 0.25 mg/L (≈ 0.876 µM)
- AUC(0-inf) (in vivo [15]): 0.167 µg·h/mL
- AUC(0-t) (in vivo [15]): 0.166 µg·h/mL
- Clast (in vivo [15]): 0.005 µg/mL
- Cmax (in vivo [15]): 1.15 µg/mL
- MRT (in vivo [15]): 4 min
- Tlast (in vivo [15]): 53 min
- Tmax (in vivo [15]): 2 min
- VSR (in vivo [15]): 0.9 L/kg
- clearance (in vivo [15]): 12.2 L/h/kg
- half-life (in vivo [15]): 8 min
